Reference: publication PMC5318461 (Frontiers in Microbiology, 2017)
Where two headings read alike, the source gives them in different places. Numbered stars: 1 amine (or outer) side, 2 acyl side, 3 side chain; on linkers, the order of the positions; unused ones are H or OH. Bridge positions count the residues as written; N and C are the ends. Square brackets hold non-standard residues; d marks the D form. Peptide text beside a SMILES is read from it. I, II: the chains in the order shown. Actinocin(9to1) = Cc1c2oc3c(C)ccc(C(=O)[*:1])c3nc-2c(C(=O)[*:2])c(N)c1=O; NMeV = CN[C@H](C(=O)O)C(C)C; Sar = CNCC(=O)O

Assays:
[1] = tested on: L. amazonensis promastigote; assay: Detection of lipid droplets using Nile Red dye (fluorometry); type: cell-based, Leishmania amazonensis
Method: Parasites were prepared and standardize in accordance to item 2.8.1. Next, 5 μL of Nile Red (Sigma–Aldrich®) 1 mg/mL methanol were added to treated parasites and incubated during 30 min, at dark and room temperature. Fluorescence was measured on Perkin-Elmer Victor X3 fluorometer, at λex = 485 nm e λem = 535 ([Greenspan et al., 1985]). Nile Red is a phenoxazone dye that fluoresces intensely at yellow–gold color in the presence of triacylglycerols, cholesterol, or cholesterol esters, considered neutral lipids ([Fowler and Greenspan, 1985]).

[2] = tested on: erythrocytes; assay: Hemolysis assay (hemoglobin release; alone and checkerboard combination); settings: read-out: CC50 Erythrocytes; isolated drug; defibrinated sheep blood, 6% erythrocyte suspension, 2 h, 37°C; ± SD
Method: (§3) Assessing the possibility of drug-induced hemolysis, the hemolytic activity was evaluated in vitro from defibrinated sheep blood, commercially obtained (Laborclin; lot n° 51109038). Erythrocyte suspension at 6% was prepared by centrifugation in 2,000 × g, for 10 min and placed in 96-wells with the different concentrations of each compound. As positive control, it used Triton X (Synth®) surfactant. After 2 h at 37°C, all samples were centrifuged for 3 min, and the supernatant was harvested to verify the hemoglobin release by the absorbance measured in 540 nm.

[3] = tested on: Leishmania amazonensis axenic amastigote; assay: In vitro activity against L. amazonensis axenic amastigotes (growth inhibition by cell counting; alone and checkerboard combination); type: cell-based; settings: isolated drug, 72 h, 32°C, ± SD
Method: Axenic amastigote forms were obtained from L. amazonensis promastigotes. For this, promastigote forms in phase log of growth were cultivated in Warren’s medium, pH 7.2, supplemented with 20% FCS and incubated at 25°C, during 48 h. Next, the parasites were maintained at 30°C, for 24 h, and at 32°C until differentiation in amastigote forms. Axenic amastigotes were maintained in Schneider insect’s medium (Sigma–Aldrich®), pH 4.6, supplemented with 20% of FCS, at 32°C ([Ueda-Nakamura et al., 2001]).

[4] = tested on: L. amazonensis promastigote; assay: Transmission electron microscopy of treated promastigotes; type: cell-based, Leishmania amazonensis; settings: IC50 and IC90, 72 h, 25°C
Method: In order to evaluate the ultrastructure changes in the treated parasites, promastigote forms were treated and fixed according described above. These samples were post-fixed with 1% OsO4 (Electron Microscopy Sciences – EMS®) and 0.8% potassium ferrocyanide (Electron Microscopy Sciences – EMS®), in the dark, during 60 min, at room temperature. This procedure increases the contrast to link with lipids. The samples were washed in 0.1 M sodium cacodylate buffer and dehydrated in increased concentration of acetone (50, 70, 80, 90, 95, 100% – Sigma–Aldrich®). All acetone content was replaced by cell diffusion for EPON^TM epoxy resin, gradually, and after 48 h, at 60°C, the resin was polymerized. Nanometric cuts (60–70 nm) were obtained on ultramicrotome (Power Tome X RMC Products), contrasted with 5% uranyl acetate (Electron Microscopy Sciences – EMS®) and 2% lead citrate (Electron Microscopy Sciences – EMS®). Finally, the samples were analyzed by transmission electron microscope (TEM) JEOL – JEM 1400.

[5] = tested on: L. amazonensis promastigote; design: method as in Britta et al. (2014); settings: ref Britta et al. (2014); cited from earlier work
[6] = tested on: non-infected macrophages; assay: Nitric oxide measurement (DAF-FM DA) on non-infected macrophages; type: cell-based; settings: IC50 and IC90
[7] = tested on: L. amazonensis promastigote; design: method as in Britta et al. (2014); settings: ref Britta et al. (2014); cited from earlier work; remark: listed apart in the source
[8] = tested on: J774.A1 macrophages; assay: Cytotoxicity on J774.A1 macrophages (MTT; alone and checkerboard combination); type: cell-based, Murine; settings: isolated drug, 48 h, ± SD, read-out: CC50 J774.A1 Macrophage
Excerpt: (§1) As positive control, it used Triton X (Synth®) surfactant. […] (2010)].

[9] = tested on: L. amazonensis intracellular amastigotes; assay: Activity against L. amazonensis intracellular amastigotes in peritoneal macrophages (survival index; alone and checkerboard combination); type: cell-based, Leishmania amazonensis; settings: isolated drug, 48 h, ± SD, read-out: IC50 Intracellular amastigote
Method: Furthermore, the activity of these drugs against L. amazonensis intracellular amastigotes was also evaluated. For this, intraperitoneal macrophages were harvested from the males BALB/c mice, by injection of cold phosphate-saline buffer (PBS) plus FCS 3% inner the peritoneal cavity. After centrifugation, a suspension of 5 × 10^5 macrophages in RPMI was placed on glass coverslips in 24-wells microplate and incubated during 2 h, at 37°C and 5% CO2 atmosphere, for cellular adhesion. After this period, the wells were washed and the macrophages were infected with L. amazonensis promastigotes in stationary phase (5–6 days) at a ratio of 7 parasites/1 mammalian cell, during 4 h, at 34°C and 5% CO2 tension and then, the tested compounds were added during 48 h ([Kaplum et al., 2016]). At the end of this period, the glass coverslips were subject to fixation with methanol during 10 min and stained with 10% Giemsa stain (GIBCO KaryoMax® Giemsa), for 40 min. Then, a total of 200 macrophages were counted under light microscope, distinguishing infected cells and amastigote parasites. Thereby, the survival index (SI = infected cells percentage × amastigote average per infected macrophage) was calculated considering 100% of survival for the untreated negative control (NC). It was subsequently possible to carry out the comparison with samples treated for IC50 calculation purposes.

[10] = tested on: peritoneal macrophages infected with L. amazonensis; assay: Nitric oxide measurement (DAF-FM DA) on infected macrophages; type: cell-based, BALB/c mice; settings: IC50 and IC90, 48 h, 34°C
Method: Furthermore, the activity of these drugs against L. amazonensis intracellular amastigotes was also evaluated. For this, intraperitoneal macrophages were harvested from the males BALB/c mice, by injection of cold phosphate-saline buffer (PBS) plus FCS 3% inner the peritoneal cavity. After centrifugation, a suspension of 5 × 10^5 macrophages in RPMI was placed on glass coverslips in 24-wells microplate and incubated during 2 h, at 37°C and 5% CO2 atmosphere, for cellular adhesion. After this period, the wells were washed and the macrophages were infected with L. amazonensis promastigotes in stationary phase (5–6 days) at a ratio of 7 parasites/1 mammalian cell, during 4 h, at 34°C and 5% CO2 tension and then, the tested compounds were added during 48 h ([Kaplum et al., 2016]). […] Then, a total of 200 macrophages were counted under light microscope, distinguishing infected cells and amastigote parasites. Thereby, the survival index (SI = infected cells percentage × amastigote average per infected macrophage) was calculated considering 100% of survival for the untreated negative control (NC). […]
Promastigote forms and infected macrophages were incubated at 25°C for 72 h and 34°C for 48 h, respectively. […] Fluorescence was measured on fluorometer Perkin-Elmer Victor X3, at λex = 495 nm and λem = 515 nm.

[11] = tested on: Leishmania amazonensis promastigote; assay: In vitro activity against L. amazonensis promastigotes (growth inhibition by cell counting; drugs alone and in checkerboard combination); type: cell-based; settings: isolated drug; for IC50: 72 h, 25°C, ± SD; for IC90: promastigotes
Method: Leishmania amazonensis MHOM/BR/75/Josefa strain was isolated from a human case of cutaneous leishmaniasis by Dr. Cesar A. Cuba, at University of Brasilia, Brazil ([Saraiva et al., 1983]; [Cuba et al., 1985]). These promastigote parasites were maintained in Warren’s medium, consisting of brain heart infusion (Gibco®), hemin (Sigma–Aldrich®), and folic acid (Sigma–Aldrich®), pH 7.2, supplemented with 10% of fetal calf serum (FCS – Invitrogen®) and incubated at 25°C.
The same procedure was carried out with axenic amastigote forms, using 12-wells microplate. After incubation during 72 h, at 25 and 32°C for promastigote and axenic amastigote forms, respectively, viable cells were counted with hemocytometer supporting.
Briefly, promastigotes, axenic and intracellular amastigotes were prepared even as previously described (see the section In vitro Activity against L. amazonensis) as well the macrophages and erythrocytes, according to the section Cytotoxicity and Hemolysis Assays. […] Thus, the compounds were singly evaluated in the first row and column and the checkerboard model supported the drug combination in the other wells. Next, the parasites were added and, after incubation, as described above, it was possible to determine the IC50 for the association. Finding the behavior of each association, the CI was calculated from the formula:
CI=(IC50 compound A associated/IC50 compound A alone)+(IC50 compound B associated/IC50 compound B alone)
CI values lower, equal and greater than one indicate, respectively, synergistic, additive and antagonistic profile of association tested, according established by [Chou and Talalay (1984)] and [Chou (2010)].
(§2) Scanning electron microscopy was carried out to analyze the morphologic alterations on cell surface topography. […] After incubation for 72 h, at 25°C, the samples were fixed in 2.5% glutaraldehyde in 0.1 M sodium cacodylate buffer (Electron Microscopy Sciences – EMS®) for 24 h. It used poly-L-lysine (Electron Microscopy Sciences – EMS®) to promote the fixed parasites adhesion over coverslips, which were dehydrated with increasing concentration of ethanol (30, 40, 50, 60, 70, 80, 90, 95, 100% – Sigma–Aldrich®). The samples were critical-point-dried (Baltec SCD-030) in CO2 to remove any water trace, placed on appropriate stub to coat with gold alloy. The micrographs were obtained by analysis in Shimadzu SS-550 scanning electron microscope (SEM).

[12] = tested on: L. amazonensis promastigote; assay: Volume analysis of promastigote forms, flow cytometry (FSC-H); type: cell-based, Leishmania amazonensis; settings: 24 h; miltefosine 173.32 μM; BZTS + miltefosine 13.86 μM + 37.78 μM; actinomycin D positive control
Method: For these studies, the treated protozoa were incubated during 24 h, at 25°C.
After to treat 1 × 10^7 promastigote forms with […] actinomycin D (positive control – Sigma–Aldrich®), isolated miltefosine and BZTS with miltefosine, the samples were washed two times with PBS 0.01 M and incubated. Cell volume was measured on BD FACSCalibur flow cytometer and 10,000 events were analyzed by CellQuest Pro software.

[13] = Hemolysis assay (hemoglobin release; alone and checkerboard combination); settings: sheep, 6% erythrocyte suspension from defibrinated sheep blood
Method: as §3

[14] = Cytotoxicity on J774.A1 macrophages (MTT; alone and checkerboard combination); type: cell-based, Murine; settings: mouse, J774.A1 macrophages, pH 7.6, isolated drug, ± SD, read-out: CC50 J774.A1 Macrophage
Excerpt: as §1

[15] = tested on: L. amazonensis promastigote; assay: Phosphatidylserine exposure (Annexin-V-FITC / PI), flow cytometry; type: cell-based, Leishmania amazonensis; settings: 24 h; miltefosine 173.32 μM; BZTS 13.86 μM + miltefosine 37.78 μM; CCCP 100 μM
Method: For these studies, the treated protozoa were incubated during 24 h, at 25°C. […] At the end of 24 h, the samples were washed in 0.01 M PBS and resuspended in 100 μL of binding buffer (140 mM NaCl; 5 mM CaCl2; 10 mM HEPES-Na; pH 7.4), followed by the addition of 5 μL of the Annexin-V-FITC conjugated (Molecular Probes®). After 15 min of incubation, 400 μL of binding buffer and 50 μL of PI were added. […] Data acquisition (10,000 events) and analysis were carried out on flow cytometer BD FACSCalibur, equipped with CellQuest Pro software. Necrosis processes were identified by PI fluorescence in the cells while apoptotic cells were labeled with Annexin-V-FITC, regardless of the PI behavior.

[16] = tested on: L. amazonensis promastigote; assay: Mitochondrial transmembrane potential (rhodamine 123), flow cytometry; type: cell-based, Leishmania amazonensis; settings: 24 h; 2 × IC90
Method: For these studies, the treated protozoa were incubated during 24 h, at 25°C. Parasites were prepared according 2.7.1 item, including positive control. […] At the same way described above, 10,000 events were evaluated on flow cytometer BD FACSCalibur and the data were analyzed by CellQuest Pro software.

[17] = tested on: L. amazonensis promastigote; assay: Cell membrane integrity by propidium iodide, flow cytometry; type: cell-based, Leishmania amazonensis; settings: 24 h, 25°C; miltefosine 173.32 μM; BZTS + miltefosine 13.86 μM + 37.78 μM; digitonin 40 μM
Method: For these studies, the treated protozoa were incubated during 24 h, at 25°C. L. amazonensis promastigote cells were prepared according item 2.7. After incubation, the samples were washed in PBS 0.01 M and incubated with 50 μL of propidium iodide (PI – Sigma–Aldrich®) 2 mg/mL at 25°C, for 5 min. Membrane rupture allows the entrance of PI and its binding to cell DNA. Cell membrane integrity was measured according PI fluorescence, on BD FACSCalibur flow cytometer, in which 10,000 events were evaluated by CellQuest Pro software. Digitonin saponin 40 μM (Sigma–Aldrich®) was used as positive control and the fluorescence measurement were compared with NC fluorescence.

[18] = tested on: L. amazonensis promastigote; assay: Scanning electron microscopy of treated promastigotes; type: cell-based, Leishmania amazonensis; settings: IC50 and IC90, 72 h, 25°C
Method: as §2

4-nitro benzaldehyde thiosemicarbazone derived from S-(-)-limonene [BZTS]
Lipid droplets (Nile Red fluorescence) vs NC ([1]; treated at IC50, 24 h): statistical significance | Lipid droplets (Nile Red fluorescence) vs NC ([1]; treated at IC90, 24 h): statistical significance | CC50 [2]: > 500 µM | IC50 [3]: 8.04 ± 0.37 µM | Ultrastructure changes by TEM [4]: mitochondrion alterations, like swelling and concentric membranes inner mitochondria | Annexin-V-FITC after BZTS treatment [5]: positive results | NO production, non-infected macrophages [6]: induced the NO production | cell volume after BZTS treatment [7]: cell volume decrease | CC50 [8]: 87.5 ± 9.07 µM | IC50 [9]: 6.99 ± 1.22 µM | NO production, infected macrophages [10]: only in higher concentrations | IC50 [11]: 4.16 ± 0.78 µM | IC90 [11]: 13.9 µM

Cc1c2oc3c(C)ccc(C(=O)N[C@@H]4C(=O)N[C@H](C(C)C)C(=O)N5CCC[C@H]5C(=O)N(C)CC(=O)N(C)[C@@H](C(C)C)C(=O)O[C@@H]4C)c3nc-2c(C(=O)N[C@@H]2C(=O)N[C@H](C(C)C)C(=O)N3CCC[C@H]3C(=O)N(C)CC(=O)N(C)[C@@H](C(C)C)C(=O)O[C@@H]2C)c(N)c1=O [Actinomycin D] (I: T[dV]P[Sar][NMeV] / II: T[dV]P[Sar][NMeV]; ester I:1-I:C, II:1-II:C; linker I:N-II:N via Actinocin(9to1))
cells with volume reduction compared to untreated parasites [12]: 51.95%

C[C@@H]1[C@H](O)[C@@H](C)/C=C/C=C/C=C/C=C/C=C/C=C/C=C/[C@H](O[C@@H]2O[C@H](C)[C@@H](O)[C@H](N)[C@@H]2O)C[C@@H]2O[C@](O)(C[C@@H](O)C[C@@H](O)[C@H](O)CC[C@@H](O)C[C@@H](O)CC(=O)O[C@H]1C)C[C@H](O)[C@H]2C(=O)O [Amphotericin B]
CC50 at 2 h [13]: 51.8 ± 4.34 µM | IC50 ([3]; Leishmania amazonensis): 0.43 ± 0.19 µM | CC50 at 48 h [14]: 3.74 ± 0.59 µM

N#CC(C#N)=NNc1cccc(Cl)c1 [CCCP, carbonyl cyanide 3-chlorophenylhydrazone]
cells in late apoptotic process, Annexin-V-FITC and PI fluorescence (upper right quadrant) [15]: 39.98% | cells with only Annexin-V-FITC label (lower right quadrant) [15]: 5.25%

CCCCCCCCCCCCCCCCOP(=O)([O-])OCC[N+](C)(C)C [Miltefosine, hexadecyl-phosphocholine]
Lipid droplets (Nile Red fluorescence) vs NC ([1]; treated at IC90, 24 h): statistical significance | CC50 at 2 h [13]: 21.4 ± 0.75 µM | IC50 ([3]; Leishmania amazonensis): 0.79 ± 0.48 µM | Ultrastructure changes by TEM [4]: Disruption of cytoplasmic membrane | Rh 123 fluorescence intensity (in words) [16]: strong decrease | PI fluorescence (cells that lost plasma membrane integrity) [17]: 81.18% | NO production, non-infected macrophages [6]: induced the NO production | CC50 at 48 h [14]: 55.1 ± 1.97 µM | cells with volume reduction compared to untreated parasites [12]: 10.45% | IC50 ([9]; Leishmania amazonensis, Peritoneal macrophage): 1.82 ± 0.2 µM | NO production, infected macrophages [10]: NO production increased from low concentration | Morphologic alterations by SEM [18]: changes on surface cell and reduction of the flagellum length | IC50 ([11]; Leishmania amazonensis): 20.8 ± 0.25 µM | IC90 ([11]; Leishmania amazonensis): 86.7 µM
